Consider 20 molecules from ChEMBL document CHEMBL5370544, “Design, synthesis, and biological evaluation of 1-styrenyl isoquinoline derivatives for anti-hepatocellular carcinoma activity and effect on mitochondria” (Eur J Med Chem, 2023).

Assay [1] has as its system Huh-7. The assay can be described thus: Antiproliferative activity against human Huh-7 cells assessed as inhibition of cell growth measured after 72 hrs by MTT assay. The class given is functional, cell-based. Particulars: Huh-7, 72 h. In general terms: Formazan colour is commonly taken as a measure of viable cells.
For another assay, the system named is SK-HEP1. Briefly: Antiproliferative activity against human SK-HEP1 cells assessed as inhibition of cell growth measured after 72 hrs by MTT assay. Type of assay: functional, cell-based. Particulars: SK-HEP1, 72 h.
The next assay relates to HepG2. The assay can be described thus: Antiproliferative activity against human HepG2 cells assessed as inhibition of cell growth measured after 72 hrs by MTT assay. Particulars: HepG2, 72 h. The class given is functional, cell-based.
The subject of a further assay is HCCLM9. Briefly: Antiproliferative activity against human HCCLM9 cells assessed as inhibition of cell growth measured after 72 hrs by MTT assay. The class given is functional, cell-based. Particulars: HCCLM9, 72 h.
Assay [2] has as its system Huh-7. The assay can be described thus: Antitumor activity against human Huh-7 cells xenografted in BALB/c mouse assessed as tumor growth inhibition at 15 mg/kg, ip qd measured after 14 days. Type of assay: functional. Particulars: Huh-7, 336 h, time 14 day, read-out: TGI. A general note: A xenograft is tissue or cells of one species grown in another, often human tumour cells in immunodeficient mice.

As for `COc1ccccc1/C=C/c1nccc2ccccc12`, the IC50 (as a rule, the concentration needed to halve the response being measured) with Huh-7 [1] was 23.9 µM; in the assay with SK-HEP1, 37.6 µM; in the assay on HepG2, 26.8 µM; in the assay on HCCLM9 it was 37.6 µM.

In the case of `C(=C\c1nccc2ccccc12)/c1ccc(-c2ccccc2)cc1`, the IC50 in the assay with Huh-7 [1], with SK-HEP1, in the assay with HepG2 and in the assay with HCCLM9 was above 40 µM each time.

As for `Oc1ccc(/C=C/c2nccc3ccccc23)cc1`, the IC50 is 11.9 µM with Huh-7 [1], above 40 µM in the assay on SK-HEP1, above 40 µM with HepG2 and 29.9 µM in the assay on HCCLM9.

Consider `COc1ccc(/C=C/c2nccc3ccccc23)cc1`, for which the IC50 with Huh-7 [1] is 15.8 µM; in the assay with SK-HEP1, above 40 µM; in the assay on HepG2, 18.1 µM; with HCCLM9, above 40 µM.

`C#Cc1ccccc1/C=C/c1nccc2ccccc12`: the IC50 in the assay with Huh-7 [1] was 24.8 µM; in the assay with SK-HEP1, 39.2 µM; with HepG2, 31 µM; in the assay with HCCLM9, above 40 µM.

Turning to `Nc1ccccc1/C=C/c1nccc2ccccc12`, the IC50 with Huh-7 [1] is above 40 µM; with SK-HEP1, 26.1 µM; in the assay on HepG2 it was 25.3 µM; with HCCLM9 it was above 40 µM.

Regarding `Oc1ccccc1/C=C/c1nccc2ccccc12`, the IC50 in the assay with Huh-7 [1] was 6.07 µM; in the assay with SK-HEP1 it was 17.1 µM; in the assay on HepG2 it was 8.92 µM; with HCCLM9, 13.6 µM.

Turning to `N#Cc1ccccc1/C=C/c1nccc2ccccc12`, the IC50 in the assay with Huh-7 [1] was determined as 4.52 µM; with SK-HEP1, 11.7 µM; in the assay on HepG2, 17.4 µM; in the assay with HCCLM9, 10.8 µM.

Consider `CC(=O)Oc1ccc(/C=C/c2nccc3ccccc23)cc1`, for which the IC50 with Huh-7 [1] worked out at 15.4 µM; in the assay with SK-HEP1 it was 23.4 µM; with HepG2, 20.6 µM; in the assay with HCCLM9, 35.1 µM.

Turning to `Nc1ccc(/C=C/c2nccc3ccccc23)cc1`, the IC50 is 17.3 µM with Huh-7 [1], above 40 µM in the assay with SK-HEP1, 23.4 µM in the assay on HepG2 and 16.1 µM in the assay with HCCLM9.

Consider `CNC(=O)c1cc(Oc2ccc(NC(=O)Nc3ccc(Cl)c(C(F)(F)F)c3)cc2)ccn1` [SORAFENIB], for which the inhibition in vivo at 15 mg/kg with Huh-7 [2] amounted to 77%. Also, the IC50 in the assay with Huh-7 [1] stood at 9.48 µM; with SK-HEP1, 8.63 µM; in the assay on HepG2, 9.03 µM; in the assay on HCCLM9, 9.21 µM.

Consider `Nc1cccc(/C=C/c2nccc3ccccc23)c1`, for which the IC50 was 14.1 µM with Huh-7 [1], above 40 µM in the assay on SK-HEP1, 8.66 µM in the assay on HepG2 and 30.9 µM with HCCLM9.

For `C#Cc1ccc(/C=C/c2nccc3ccccc23)cc1`, the IC50 in the assay on Huh-7 [1] was 12.9 µM; in the assay with SK-HEP1, above 40 µM; in the assay on HepG2, above 40 µM; with HCCLM9, above 40 µM.

For the molecule `N#Cc1ccc(/C=C/c2nccc3ccccc23)cc1`, the IC50 in the assay with Huh-7 [1] is 5.61 µM; in the assay with SK-HEP1, above 40 µM; in the assay with HepG2 it was above 40 µM; in the assay with HCCLM9 it was 30.7 µM.

With `COc1cccc(/C=C/c2nccc3ccccc23)c1`, the IC50 with Huh-7 [1] is 15.1 µM; in the assay on SK-HEP1 it was 33 µM; with HepG2, 10.8 µM; in the assay with HCCLM9, 20.4 µM.

For `Oc1cccc(/C=C/c2nccc3ccccc23)c1`, the IC50 with Huh-7 [1] was 24.7 µM; with SK-HEP1 it was above 40 µM; in the assay on HepG2, 20.4 µM; in the assay with HCCLM9, above 40 µM.

Consider `N#Cc1cccc(/C=C/c2nccc3ccccc23)c1`, for which the IC50 in the assay on Huh-7 [1] is 12.2 µM; with SK-HEP1 it was above 40 µM; in the assay with HepG2 it was above 40 µM; in the assay with HCCLM9 it was above 40 µM.

With `O=c1[nH]cc(F)c(=O)[nH]1` [FLUOROURACIL], the IC50 is 8.98 µM in the assay on Huh-7 [1], above 40 µM in the assay on SK-HEP1, 29.4 µM in the assay with HepG2 and 27.2 µM in the assay on HCCLM9.

Consider `CC(=O)Oc1cccc(/C=C/c2nccc3ccccc23)c1`, for which the IC50 in the assay on Huh-7 [1] was determined as 11.6 µM; in the assay on SK-HEP1, 14.3 µM; in the assay with HepG2, 14.5 µM; in the assay on HCCLM9, 28.6 µM.

On to `Oc1ccc(/C=C/c2cc(O)cc(O)c2)cc1` [RESVERATROL], for which the IC50 in the assay with Huh-7 [1], with SK-HEP1, in the assay on HepG2 and in the assay with HCCLM9 was above 40 µM in each case.
